According to patent US20250092016A1, “COMPOUNDS AND COMPOSITIONS FOR THE TREATMENT OF CORONAVIRAL RELATED DISEASES” (priority 2021, published 2025):

Molecular target: SARS-CoV-2 main protease (M^pro) (Severe acute respiratory syndrome coronavirus 2, UniProt P0DTD1)
Test: Rapid-Fire MS Biochemical Assay measuring Mpro activity (5 nM Mpro)
Details: Table 1B, Mpro inhibition, 5 μM substrate peptide, 120 min, read-out: Rapid-Fire Assay IC50

Row | SMILES | IC50 [nM]
1 | N#C[C@H]1CN(C2CC(C(F)(F)F)C2)C(=O)N1c1cncc2ccccc12 (mixture of isomers) [Compound 45, (R)-3-(isoquinolin-4-yl)-2-oxo-1-(3-(trifluoromethyl)cyclobutyl)imidazolidine-4-carbonitrile] | > 1000
2 | COc1cc(C(F)(F)F)ccc1N1CC(C#N)N(c2cncc3ccccc23)C1=O (racemic) [Compound 12, 3-(isoquinolin-4-yl)-1-(2-methoxy-4-(trifluoromethyl)phenyl)-2-oxoimidazolidine-4-carbonitrile] | 20 to 200
3 | COc1ccc(C#N)cc1N1CC(C#N)N(c2cncc3ccccc23)C1=O (racemic) [Compound 15, 1-(5-cyano-2-methoxyphenyl)-3-(isoquinolin-4-yl)-2-oxoimidazolidine-4-carbonitrile] | < 20
4 | COc1cc(C#N)ccc1N1CC(C#N)N(c2cncc3ccccc23)C1=O (racemic) [Compound 19, 1-(4-cyano-2-methoxyphenyl)-3-(isoquinolin-4-yl)-2-oxoimidazolidine-4-carbonitrile] | 200 to 1000
5 | N#Cc1ccc(Cl)cc1N1CC(C#N)N(c2cncc3ccccc23)C1=O (racemic) [Compound 20, 1-(5-chloro-2-cyanophenyl)-3-(isoquinolin-4-yl)-2-oxoimidazolidine-4-carbonitrile] | < 20
6 | N#CC1CN(C2CC(F)(F)C2)C(=O)N1c1cncc2ccccc12 (racemic) [Compound 27, 1-(3,3-difluorocyclobutyl)-3-(isoquinolin-4-yl)-2-oxoimidazolidine-4-carbonitrile] | 20 to 200
7 | N#CC1CN(C2CC(O)(C(F)(F)F)C2)C(=O)N1c1cncc2ccccc12 (racemic) [Compound 28, 1-(3-hydroxy-3-(trifluoromethyl)cyclobutyl)-3-(isoquinolin-4-yl)-2-oxoimidazolidine-4-carbonitrile] | 20 to 200
8 | N#CC1CN(c2cccc(Cl)c2)C(=O)N1c1cncc2ccc(C(=O)O)cc12 (racemic) [Compound 33, 4-(3-(3-chlorophenyl)-5-cyano-2-oxoimidazolidin-1-yl)isoquinoline-6-carboxylic acid] | < 20
9 | CS(=O)(=O)c1ccc2cncc(N3C(=O)N(c4cccc(Cl)c4)CC3C#N)c2c1 (racemic) [Compound 37, 1-(3-chlorophenyl)-3-(6-(methylsulfonyl)isoquinolin-4-yl)-2-oxoimidazolidine-4-carbonitrile] | < 20
10 | N#CC1CN(c2ccnc(C(F)(F)F)c2)C(=O)N1c1cncc2ccccc12 (racemic) [Compound 57, 3-(isoquinolin-4-yl)-2-oxo-1-(2-(trifluoromethyl)pyridin-4-yl)imidazolidine-4-carbonitrile] | < 20
11 | COc1cc(Cl)cnc1N1CC(C#N)N(c2cncc3ccccc23)C1=O (racemic) [Compound 58, 1-(5-chloro-3-methoxypyridin-2-yl)-3-(isoquinolin-4-yl)-2-oxoimidazolidine-4-carbonitrile] | 200 to 1000
12 | N#Cc1cc(Cl)ccc1N1CC(C#N)N(c2cncc3ccccc23)C1=O (racemic) [Compound 60, 1-(4-chloro-2-cyanophenyl)-3-(isoquinolin-4-yl)-2-oxoimidazolidine-4-carbonitrile] | 20 to 200
13 | CC(C)n1cc(N2CC(C#N)N(c3cncc4ccccc34)C2=O)cn1 (racemic) [Compound 64, 1-(1-isopropyl-1H-pyrazol-4-yl)-3-(isoquinolin-4-yl)-2-oxoimidazolidine-4-carbonitrile] | 20 to 200
14 | Cn1cc(N2CC(C#N)N(c3cncc4ccccc34)C2=O)cn1 (racemic) [Compound 65, 3-(isoquinolin-4-yl)-1-(1-methyl-1H-pyrazol-4-yl)-2-oxoimidazolidine-4-carbonitrile] | 200 to 1000
15 | N#CC1CN(c2ccc(F)cc2F)C(=O)N1c1cncc2ccccc12 (racemic) [Compound 66, 1-(2,4-difluorophenyl)-3-(isoquinolin-4-yl)-2-oxoimidazolidine-4-carbonitrile] | 20 to 200
16 | N#CC1CN(c2cc(C(F)(F)F)ncc2Cl)C(=O)N1c1cncc2ccccc12 (racemic) [Compound 70-1, 1-(5-chloro-2-(trifluoromethyl)pyridin-4-yl)-3-(isoquinolin-4-yl)-2-oxoimidazolidine-4-carbonitrile] | 20 to 200
17 | N#CC1CN(c2ccc(F)c(F)c2)C(=O)N1c1cncc2ccccc12 (racemic) [Compound 72, 1-(3,4-difluorophenyl)-3-(isoquinolin-4-yl)-2-oxoimidazolidine-4-carbonitrile] | < 20
18 | Cc1ncccc1N1CC(C#N)N(c2cncc3ccccc23)C1=O (racemic) [Compound 74, 3-(isoquinolin-4-yl)-1-(2-methylpyridin-3-yl)-2-oxoimidazolidine-4-carbonitrile] | 200 to 1000
19 | Cc1cc(Cl)cnc1N1CC(C#N)N(c2cncc3ccccc23)C1=O (racemic) [Compound 80, 1-(5-chloro-3-methylpyridin-2-yl)-3-(isoquinolin-4-yl)-2-oxoimidazolidine-4-carbonitrile] | 20 to 200
20 | N#CC1CN(c2ccc(F)c(Cl)c2)C(=O)N1c1cncc2ccccc12 (racemic) [Compound 87, 1-(3-chloro-4-fluorophenyl)-3-(isoquinolin-4-yl)-2-oxoimidazolidine-4-carbonitrile] | < 20
21 | N#CC1CN(c2cccc(OC(F)F)c2)C(=O)N1c1cncc2ccccc12 (racemic) [Compound 89, 1-(3-(difluoromethoxy)phenyl)-3-(isoquinolin-4-yl)-2-oxoimidazolidine-4-carbonitrile] | 200 to 1000

Row | SMILES | IC50 [nM]
22 | N#Cc1ccc(C(F)(F)F)cc1N1CC(C#N)N(c2cncc3ccccc23)C1=O (racemic) [Compound 90, 1-(2-cyano-5-(trifluoromethyl)phenyl)-3-(isoquinolin-4-yl)-2-oxoimidazolidine-4-carbonitrile] | < 20
23 | N#CC1CN(c2cccc(OC(F)(F)F)c2)C(=O)N1c1cncc2ccccc12 (racemic) [Compound 92, 3-(isoquinolin-4-yl)-2-oxo-1-(3-(trifluoromethoxy)phenyl)imidazolidine-4-carbonitrile] | < 20
24 | COc1cc(Cl)ccc1N1CC(C#N)N(c2cncc3ccccc23)C1=O (racemic) [Compound 103, 1-(4-chloro-2-methoxyphenyl)-3-(isoquinolin-4-yl)-2-oxoimidazolidine-4-carbonitrile] | 20 to 200
25 | N#CC1CN(c2cccc(C(F)(F)F)c2)C(=O)N1c1cncc2ccccc12 (racemic) [Compound 106, 3-(isoquinolin-4-yl)-2-oxo-1-(3-(trifluoromethyl)phenyl)imidazolidine-4-carbonitrile] | > 1000
26 | N#CC1CN(c2cc(F)cc(F)c2)C(=O)N1c1cncc2ccccc12 (racemic) [Compound 110, 1-(3,5-difluorophenyl)-3-(isoquinolin-4-yl)-2-oxoimidazolidine-4-carbonitrile] | < 20
27 | N#CC1CN(c2ccc(=O)[nH]c2)C(=O)N1c1cncc2ccccc12 (racemic) [Compound 113, 3-(isoquinolin-4-yl)-2-oxo-1-(6-oxo-1,6-dihydropyridin-3-yl)imidazolidine-4-carbonitrile] | > 1000
28 | Cc1ccc(C#N)c(N2CC(C#N)N(c3cncc4ccccc34)C2=O)c1 (racemic) [Compound 116, 1-(2-cyano-5-methylphenyl)-3-(isoquinolin-4-yl)-2-oxoimidazolidine-4-carbonitrile] | < 20
29 | Cc1c[nH]c(N2CC(C#N)N(c3cncc4ccccc34)C2=O)n1 (racemic) [Compound 118, 3-(isoquinolin-4-yl)-1-(4-methyl-1 H-imidazol-2-yl)-2-oxoimidazolidine-4-carbonitrile] | 200 to 1000
30 | N#CC1CN(c2nc(Cl)c[nH]2)C(=O)N1c1cncc2ccccc12 (racemic) [Compound 119, 1-(4-chloro-1H-imidazol-2-yl)-3-(isoquinolin-4-yl)-2-oxoimidazolidine-4-carbonitrile] | 20 to 200
31 | N#CC1CN(C2CC3(C2)CC(F)(F)C3)C(=O)N1c1cncc2ccccc12 (racemic) [Compound 127, 1-(6,6-difluorospiro[3.3]heptan-2-yl)-3-(isoquinolin-4-yl)-2-oxoimidazolidine-4-carbonitrile] | < 20
32 | N#CC1CN(C2CN(CC(F)(F)F)C2)C(=O)N1c1cncc2ccccc12 (racemic) [Compound 133, 3-(isoquinolin-4-yl)-2-oxo-1-(1-(2,2,2-trifluoroethyl)azetidin-3-yl)imidazolidine-4-carbonitrile] | < 20
33 | N#CC1CN(C2CN(C3CC3)C2)C(=O)N1c1cncc2ccccc12 (racemic) [Compound 135, 1-(1-cyclopropylazetidin-3-yl)-3-(isoquinolin-4-yl)-2-oxoimidazolidine-4-carbonitrile] | 20 to 200
34 | N#CC1CN(C23CC(F)(C2)C3)C(=O)N1c1cncc2ccccc12 (racemic) [Compound 139, 1-(3-fluorobicyclo[1.1.1]pentan-1-yl)-3-(isoquinolin-4-yl)-2-oxoimidazolidine-4-carbonitrile] | 20 to 200
35 | COc1cc(C(F)(F)F)ccc1N1C[C@H](C#N)N(c2cncc3ccccc23)C1=O (single isomer, unassigned) [Compound 12a] | < 20
36 | COc1cc(C(F)(F)F)ccc1N1C[C@@H](C#N)N(c2cncc3ccccc23)C1=O (single isomer, unassigned) [Compound 12b] | > 1000
37 | N#C[C@H]1CN(c2cnnc(C(F)(F)F)c2)C(=O)N1c1cncc2ccccc12 (single isomer, unassigned) [Compound 13a] | < 20
38 | N#C[C@@H]1CN(c2cnnc(C(F)(F)F)c2)C(=O)N1c1cncc2ccccc12 (single isomer, unassigned) [Compound 13b] | > 1000
39 | COc1cnc(C(F)(F)F)cc1N1C[C@H](C#N)N(c2cncc3ccccc23)C1=O (single isomer, unassigned) [Compound 14a] | < 20
40 | COc1cnc(C(F)(F)F)cc1N1C[C@@H](C#N)N(c2cncc3ccccc23)C1=O (single isomer, unassigned) [Compound 14b] | > 1000
41 | COc1ccc(C#N)cc1N1C[C@H](C#N)N(c2cncc3ccccc23)C1=O (single isomer, unassigned) [Compound 15a] | < 20
